ChEMBL document CHEMBL2346566, “Small molecule inhibitors of PCNA/PIP-box interaction suppress translesion DNA synthesis” (Bioorg Med Chem, 2013)
Calls of active or inactive are those of the source. The rule behind the calls is not given here.

Assays:
Assay type in all cases: functional, cell-based
U2OS [1] = assay: Cytotoxicity against human U2OS cells at 15 uM after 4 days by Alamar blue assay
HeLa = assay: Antiproliferative activity against human HeLa cells assessed as inhibition of at 10 uM after 18 hrs by assay
U2OS [2] = assay: Potentiation of cisplatin-induced cytotoxicity in human U2OS cells at 15 uM after 4 days by Alamar blue assay

Compound	Activity (U2OS [1])	Activity (HeLa)	Activity (U2OS [2])
CC(C)NC(=O)NC[C@@H](N)Cc1cc(I)c(Oc2ccc(O)cc2)c(I)c1	inactive	Active	Active
O=C(CCc1cc(I)c(Oc2ccc(O)cc2)c(I)c1)N1CCOCC1	–	Active	–
CC(=O)NC[C@@H](N)Cc1cc(I)c(Oc2ccc(O)cc2)c(I)c1	inactive	Active	Active
O=C(Cc1cc(I)c(Oc2ccc(O)c(I)c2)c(I)c1)NS(=O)(=O)c1ccccc1	–	Active	–
O=C(CCc1cc(I)c(Oc2ccc(O)cc2)c(I)c1)NCC1CCCO1 (configuration not stated)	–	Active	–
O=C(Cc1cc(I)c(Oc2ccc(O)c(I)c2)c(I)c1)N1CCOCC1	–	Active	–
N[C@H](CNC(=O)N1CCOCC1)Cc1cc(I)c(Oc2ccc(O)cc2)c(I)c1	–	Active	–
CN(C)C(=O)Cc1cc(I)c(Oc2ccc(O)c(I)c2)c(I)c1	–	Active	–
COC(=O)N[C@H](CO)Cc1cc(I)c(Oc2ccc(O)cc2)c(I)c1	–	Active	–
CS(=O)(=O)NC(=O)Cc1cc(I)c(Oc2ccc(O)c(I)c2)c(I)c1	–	Active	–
CNC(=O)Cc1cc(I)c(Oc2ccc(O)c(I)c2)c(I)c1	inactive	Active	Active
CS(=O)(=O)NC[C@@H](N)Cc1cc(I)c(Oc2ccc(O)cc2)c(I)c1	–	Active	–
CC(=O)N[C@H](CO)Cc1cc(I)c(Oc2ccc(O)cc2)c(I)c1	–	Active	–
O=C(CCc1cc(I)c(Oc2ccc(O)cc2)c(I)c1)NCCO	–	Active	–
CNC(=O)CCc1cc(I)c(Oc2ccc(O)cc2)c(I)c1	–	Active	–
N[C@H](CO)Cc1cc(I)c(Oc2ccc(O)cc2)c(I)c1	inactive	Active	Active
N[C@H](CNC(=O)CCN1CCOCC1)Cc1cc(I)c(Oc2ccc(O)cc2)c(I)c1	–	Active	–
CCOCCNC(=O)CCc1cc(I)c(Oc2ccc(O)cc2)c(I)c1	–	Active	–
CC(C)NC(=O)N[C@H](CO)Cc1cc(I)c(Oc2ccc(O)cc2)c(I)c1	–	Active	–
